Measured values as given in patent US20260242391A1 (priority 2023, published 2026).

Assays:
HL-60 = HL-60 differentiation potency; format: cell-based; settings: Homo sapiens
in vitro = settings: human

Row | Compound | EC50 (HL-60) | IC50 (in vitro)
1 | C[C@H]1[C@@H](Oc2ccc(C(=O)N[C@H](C(=O)O)C3CCC3)cc2)O[C@@H]2O[C@@]3(C)CC[C@H]4[C@H](C)CC[C@@H]1[C@@]24OO3 [Compound 251, (S)-2-cyclobutyl-2-(4-(((3R,5aS,6R,8aS, 9R,10S,12R, 12aR)-3,6,9-trimethyldeca-hydro-12H-3,12-epoxy[1,2]dioxepino[4,3-i]isochromen-10-yl)oxy)benzamido) acetic acid] | 0.0982 µM | 1.52 µM
2 | C[C@H]1[C@@H](Oc2ccc(C(=O)N[C@H]3CCC[C@H]3C(=O)O)cc2)O[C@@H]2O[C@@]3(C)CC[C@H]4[C@H](C)CC[C@@H]1[C@@]24OO3 [Compound 187, (1R,2S)-2-(4-(((3R,5aS,6R,8aS, 9R,10S,12R, 12aR)-3,6,9-trimethyldeca-hydro-12H-3,12-epoxy[1,2]dioxepino[4,3-i]isochromen-10-yl)oxy)benzamido) cyclopentane-1-carboxylic acid] | 0.0333 µM | 2.4 µM
3 | C[C@H]1[C@@H](O[C@H]2CC[C@@H](C(=O)NC3(C(=O)O)CC3)CC2)O[C@@H]2O[C@@]3(C)CC[C@H]4[C@H](C)CC[C@@H]1[C@@]24OO3 [Compound 262, 1-((1R,4s)-4-(((3R,5aS,6R,8aS, 9R,10S,12R, 12aR)-3,6,9-trimethyldeca-hydro-12H-3,12-epoxy[1,2]dioxepino[4,3-i]isochromen-10-yl)oxy)cyclohexane-1-carboxamido) cyclopropane-1-carboxylic acid] | 11.4 µM | > 20 µM
4 | C[C@H]1[C@@H](OCc2ccc(C(=O)N3CCC(C(=O)O)CC3)cc2)O[C@@H]2O[C@@]3(C)CC[C@H]4[C@H](C)CC[C@@H]1[C@@]24OO3 [Compound 277, 1-(4-((((3R,5aS,6R,8aS, 9R,10S,12R, 12aR)-3,6,9-trimethyldeca-hydro-12H-3,12-epoxy[1,2]dioxepino[4,3-i]isochromen-10-yl)oxy)methyl)benzoyl) piperidine-4-carboxylic acid] | 1.78 µM | > 20 µM
5 | CC(C(=O)N[C@H]1CC[C@@H](C(=O)O)C1)c1ccc(O[C@H]2O[C@@H]3O[C@@]4(C)CC[C@H]5[C@H](C)CC[C@@H]([C@H]2C)[C@@]35OO4)c(F)c1 (stereo partly drawn) [Compound 306, (1R,3S)-3-(2-(3-fluoro-4-(((3R,5aS,6R,8aS, 9R,10S,12R, 12aR)-3,6,9-trimethyldeca-hydro-12H-3,12-epoxy[1,2]dioxepino[4,3-i]isochromen-10-yl)oxy)phenyl)propanamido) cyclopentane-1-carboxylic acid] | 0.0133 µM | 0.69 µM
6 | C[C@H]1[C@@H](O[C@H]2CC[C@@H](C(=O)N[C@H](C(=O)O)C(C)(C)C)CC2)O[C@@H]2O[C@@]3(C)CC[C@H]4[C@H](C)CC[C@@H]1[C@@]24OO3 [Compound 229, (S)-3,3-dimethyl-2-((1R,4R)-4-(((3R,5aS,6R,8aS, 9R,10S,12R, 12aR)-3,6,9-trimethyldeca-hydro-12H-3,12-epoxy[1,2]dioxepino[4,3-i]isochromen-10-yl)oxy)cyclohexane-1-carboxamido) butanoic acid] | 0.204 µM | > 20 µM
7 | C[C@H]1[C@@H](OC[C@H]2CC[C@@H](C(=O)Nc3ccc(C(=O)O)cc3)CC2)O[C@@H]2O[C@@]3(C)CC[C@H]4[C@H](C)CC[C@@H]1[C@@]24OO3 [Compound 287, 4-((1R,4s)-4-((((3R,5aS,6R,8aS, 9R,10S,12R, 12aR)-3,6,9-trimethyldeca-hydro-12H-3,12-epoxy[1,2]dioxepino[4,3-i]isochromen-10-yl)oxy)methyl)cyclohexane-1-carboxamido) benzoic acid] | 0.0608 µM | 1 µM
8 | C[C@H]1[C@@H](Oc2ccc(OC(C)(C)C(=O)O)cc2)O[C@@H]2O[C@@]3(C)CC[C@H]4[C@H](C)CC[C@@H]1[C@@]24OO3 [Compound 221, 2-methyl-2-(4-(((3R,5aS,6R,8aS, 9R,10S,12R, 12aR)-3,6,9-trimethyldeca-hydro-12H-3,12-epoxy[1,2]dioxepino[4,3-i]isochromen-10-yl)oxy)phenoxy) propanoic acid] | 0.124 µM | 9.61 µM
